{
  "source": "patent US20240067621A1",
  "about": "“POLYFLUORINATED CANNABINOID AND CANNABINOID-LIKE COMPOUNDS AND METHODS OF SYNTHESIS AND USE THEREOF” (The Board of Regents For The Oklahoma Agricultural And …, priority 2021, published 2024)",
  "data": [
    {"test_system": "cannabinoid receptors", "conditions": "natural (trans) THC versus its cis counterpart; cited from earlier work", "values": [
      {"smiles": "CCCCCc1cc(O)c2c(c1)OC(C)(C)[C@@H]1CCC(C)=C[C@@H]21", "note": "[THC, trans-Δ^9 -tetrahydrocannabinol]", "affinity for cannabinoid receptors": "higher affinity"}
    ]},
    {"test_system": "not given", "conditions": "not given", "units": {"melting point": "°C"}, "values": [
      {"smiles": "CC1=CC(c2c(F)c(F)c(C#N)c(F)c2F)C(C#N)=CC1", "note": "(centres unmarked)", "melting point": "117 to 120"},
      {"smiles": "COC(=O)C1=CCC(OC(=O)OC(C)(C)C)=CC1c1c(F)c(F)c(C#N)c(F)c1F", "note": "(centres unmarked)", "melting point": "104 to 105"},
      {"smiles": "COC(=O)C1=CCC(C)=CC1c1c(F)c(F)c(C(=O)OC)c(F)c1F", "note": "(centres unmarked)", "melting point": "91 to 95"},
      {"smiles": "COC(=O)C1=CCC(C)=CC1c1c(F)c(F)nc(F)c1F", "note": "(centres unmarked)", "melting point": "93 to 96"},
      {"smiles": "COC(=O)C1=CCC(C(C)(C)C)=CC1c1c(F)c(F)nc(F)c1F", "note": "(centres unmarked)", "melting point": "59 to 60"},
      {"smiles": "COC(=O)C1=CCC(C)=CC1c1c(F)c(F)c(C(F)(F)F)c(F)c1F", "note": "(centres unmarked)", "melting point": "104 to 105"},
      {"smiles": "COC(=O)C1=CCC(C(C)(C)C)=CC1c1c(F)c(F)c(C#N)c(F)c1F", "note": "(centres unmarked)", "melting point": "108 to 110"}
    ]}
  ]
}
